Assays:
COVID-19 [1] = assay: Phase 2 placebo-controlled study in COVID-19 infection in hospitalized adults (Example 81); format: in vivo, human; details: hospitalized COVID-19 patients, 7% solution in 15% ethanol sprayed on skin BID for 28 days
Source text: Patients cannot be enrolled or randomized before all eligibility criteria (including test results) are confirmed.
Inclusion criteria: • 1. Admitted to a hospital with pulmonary symptoms of active COVID-19. • 2. Patient (or legally authorized representative) provides informed consent prior to initiation of any study procedures. • 3. Patient (or legally authorized representative) understands and agrees to comply with planned study procedures. • 4. Male or nonpregnant female adult ≥18 years of age at time of enrollment. • 5. Has laboratory confirmed severe acute respiratory syndrome coronavirus 2 (COVID-19) infection as determined by polymerase chain reaction (PCR) or other commercial or public health assay (serology is not acceptable) in any specimen, as documented by either of the following: • a. Laboratory confirmed COVID-19 infection by method as defined above, in sample collected <72 hours prior to randomization; OR • b. […] Has a room-air SpO2<93% and a score of 4 (hospitalized, oxygen by mask or nasal prongs), or room-air SpO2<93% and a score of 5 (hospitalized, noninvasive ventilation or high-flow oxygen), or a score 6 (hospitalized, intubation and mechanical ventilation) in the ordinal scale, which specifically is as follows: • 0) Uninfected, no clinical or virological evidence of infection • 1) Ambulatory (not diagnosed), no limitations of activities. • 2) Ambulatory (not diagnosed), limitation on activities and/or requiring home oxygen • 3) Diagnosed (mild disease), no requiring supplemental oxygen; • 4) Diagnosed (moderate disease), requiring supplemental oxygen (by mask or nasal prongs)—requiring ongoing medical care (COVID-19 related or otherwise); • 5) Diagnosed (severe disease), non-invasive ventilation or high-flow oxygen; • 6) Diagnosed (severe disease), intubation and mechanical ventilation; • 7) Diagnosed (severe disease), ventilation+additional organ support-pressors, RRT, or extracorporeal membrane oxygenation (ECMO); • 8) Death. • 7. […]

paw edema = assay: Antiinflammatory activity, carrageenan paw edema in rats; format: in vivo, Wistar Rats; details: transdermal, 20 mg/kg
MRSA = assay: Sepsis model of MRSA infection in mice (Example 79); format: in vivo, C57/BL6 mice; details: transdermal once a day
Source text: (§1) A total of seventy C57/BL6 mice (7 groups, 10/group) were used in this study. At day 0, mice were anesthetized with isoflurane and held in a dorsal recumbent position for administration of 2×10^7CFU S. aureus by intraperitoneal (IP) injections, from hour 2 post challenge, mice were received a single dose of different concentrations of test article or vehicle control once a day up to 15th day with dose initiation on hour 2 post challenge. Group 1 served as an infected control group and was treated with vehicle (35% ethanol). […] Mice were observed following MRSA challenge for clinical signs of illness including body weights, health score, morbidity and mortality.

COVID-19 [2] = assay: COVID-19 infection mouse model (Example 70); format: in vivo, hACE2 mice; details: transdermal once a day
Method: as §1, with “hACE2” for “C57/BL6”, “3×10 PFU/mouse COVID-19” for “2×10^7CFU S. aureus”, “internasal instillation,” for “intraperitoneal (IP) injections,”, “day 1” for “hour 2”, “viral” for “MRSA”
Lung lesions and peribronchiolitis of all deceased and surviving animals were characterized (Table 17).

[3] = test system: cecal slurry-induced sepsis; assay: Cecal slurry-induced sepsis mouse model (Example 75); format: in vivo, C57/BL6 mice; details: transdermal once a day
Method: as §1, with “10 mg/mouse cecal slurry” for “2×10^7CFU S. aureus”, “viral” for “MRSA”

LPS-induced fever = assay: Antipyretic activity, fever induced by LPS in rats; format: in vivo, Sprague Dawley rats; details: transdermal, 20 mg/kg
Method: The body temperature of rats was taken at 0 (2 hours after the challenge), 90 min, 180 min, and 270 min after the administration of the test compounds.

H1N1 virus = H1N1 virus infection mouse model (Example 65); format: in vivo, mice; details: transdermal once a day
Method: as §1, with “seventy” for “seventy C57/BL6”, “0.1×TCID50/mouse virus (new batch)” for “2×10^7CFU S. aureus”, “internasal instillation,” for “intraperitoneal (IP) injections,”, “day” for “hour”, “viral” for “MRSA”
Lung lesions and peribronchiolitis of all deceased and surviving animals were characterized (Table 7).

[4] = Skin penetration through rabbit skin in vitro, modified Franz cells; details: receiving fluid pure water
[5] = 2 h (before test articles treatment)
[6] = 6 h (4 hours after administration)
[7] = time 0 (before carrageenan challenge)
[8] = T = 0 min (2 hours after LPS challenge)

CCN(CC)CCOC(=O)c1ccccc1OC(C)=O.Cl [Example 4]
hospital stay time, average (COVID-19 [1]): about 4 days
time to an improvement of 2 categories using 9-point ordinal scale, average (COVID-19 [1]): about 3 days
time to maintain peripheral capillary oxygen saturation (SpO2) of >93% without oxygen support, average (COVID-19 [1]): about 3 days

CCN(CC)CCOC(=O)C(C)c1ccc(CC(C)C)cc1.Cl (stereo not shown) [Example 2]
Paw Volume Mean (paw edema; [5]): 1.697 mL
Paw Volume Mean (paw edema; [6]): 1.402 mL
Paw Volume Mean (paw edema; [7]): 1.225 mL
survival (MRSA; group 5, low dose 24.6 mg/kg): 40%
survival (MRSA; group 6, mid dose 49.2 mg/kg): 60%
survival (MRSA; group 7, high dose 98.4 mg/kg): 50%
survival (COVID-19 [2]; group 5, low dose 24.6 mg/kg): 60%
survival (COVID-19 [2]; group 6, mid dose 49.2 mg/kg): 50%
survival (COVID-19 [2]; group 7, high dose 98.4 mg/kg): 50%
survival ([3]; group 5, low dose 24.6 mg/kg): 50%
survival ([3]; group 6, mid dose 49.2 mg/kg): 50%
survival ([3]; group 7, high dose 98.4 mg/kg): 40%
body temperature (Mean) (LPS-induced fever; [8]): 38.31
body temperature (Mean) (LPS-induced fever; T = 90 min): 37.57
body temperature (Mean) (LPS-induced fever; T = 180 min): 36.86
body temperature (Mean) (LPS-induced fever; T = 270 min): 36.63

COc1ccc2cc(C(C)C(=O)OCC3CCCN3)ccc2c1.Cl (stereo not shown) [Example 16, (pyrrolidin-2-yl)methyl 2-(6-methoxy-2-naphthyl) propanoate hydrochloride]
survival (MRSA; group 2, low dose 25.1 mg/kg): 20%
survival (MRSA; group 3, mid dose 50.2 mg/kg): 30%
survival (MRSA; group 4, high dose 100.3 mg/kg): 40%
survival (COVID-19 [2]; group 2, low dose 25.1 mg/kg): 30%
survival (COVID-19 [2]; group 3, mid dose 50.2 mg/kg): 50%
survival (COVID-19 [2]; group 4, high dose 100.3 mg/kg): 50%
body temperature (Mean) (LPS-induced fever; [8]): 38.30
body temperature (Mean) (LPS-induced fever; T = 90 min): 37.38
body temperature (Mean) (LPS-induced fever; T = 180 min): 36.79
body temperature (Mean) (LPS-induced fever; T = 270 min): 36.53
survival (H1N1 virus; group 2, low dose 25.1 mg/kg): 20%
survival (H1N1 virus; group 3, mid dose 50.2 mg/kg): 20%
survival (H1N1 virus; group 4, high dose 100.3 mg/kg): 40%

Cl.O=C(Cc1ccccc1Nc1c(Cl)cccc1Cl)OCC1CCCN1 (stereo not shown) [Example 1]
Paw Volume Mean (paw edema; [5]): 1.719 mL
Paw Volume Mean (paw edema; [6]): 1.314 mL
Paw Volume Mean (paw edema; [7]): 1.245 mL
body temperature (Mean) (LPS-induced fever; [8]): 38.38
body temperature (Mean) (LPS-induced fever; T = 90 min): 37.10
body temperature (Mean) (LPS-induced fever; T = 180 min): 36.42
body temperature (Mean) (LPS-induced fever; T = 270 min): 36.41
survival (H1N1 virus; group 5, low dose 24.6 mg/kg): 70%
survival (H1N1 virus; group 6, mid dose 49.2 mg/kg): 60%
survival (H1N1 virus; group 7, high dose 98.4 mg/kg): 50%
The cumulative amount of test compounds ([4]; 1 h): 0.48 mg
The cumulative amount of test compounds ([4]; 2 h): 0.99 mg
The cumulative amount of test compounds ([4]; 4 h): 2.03 mg
The cumulative amount of test compounds ([4]; 8 h): 4.09 mg

From patent publication US20260248922A1, “TREATMENT OF SIGNS, SYMPTOMS AND/OR COMPLICATIONS OF VIRAL, BACTERIAL, PROTOZOAL, AND/OR FUNGAL INFECTIONS BY HIGH PENETRATION PRODRUGS” (priority 2022, published 2026)
